Test results as given in article doi:10.1101/2024.10.01.616164v1 (biorxiv, 2024).
Structures can show the parent of a compound that is named as a salt.

Columns and labels:
[1] = biological target: T1, LON-1 (Caenorhabditis elegans, UniProt Q09566); experiment: microscale thermophoresis; assay type: binding
T1 sequence (Q09566 24-312): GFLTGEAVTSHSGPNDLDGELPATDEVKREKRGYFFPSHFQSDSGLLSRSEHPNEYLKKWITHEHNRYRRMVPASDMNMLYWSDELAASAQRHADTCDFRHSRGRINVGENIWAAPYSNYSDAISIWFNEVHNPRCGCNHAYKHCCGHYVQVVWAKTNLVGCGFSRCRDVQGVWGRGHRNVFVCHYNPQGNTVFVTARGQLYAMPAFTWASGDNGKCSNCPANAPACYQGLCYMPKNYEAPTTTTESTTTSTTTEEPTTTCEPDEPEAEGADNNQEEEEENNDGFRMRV

[2] = biological target: LON-1 (Caenorhabditis elegans, UniProt Q09566, C207S); experiment: biochemical
Sequence of LON-1 (Caenorhabditis elegans, UniProt Q09566, C207S) (Q09566 24-312 C207S): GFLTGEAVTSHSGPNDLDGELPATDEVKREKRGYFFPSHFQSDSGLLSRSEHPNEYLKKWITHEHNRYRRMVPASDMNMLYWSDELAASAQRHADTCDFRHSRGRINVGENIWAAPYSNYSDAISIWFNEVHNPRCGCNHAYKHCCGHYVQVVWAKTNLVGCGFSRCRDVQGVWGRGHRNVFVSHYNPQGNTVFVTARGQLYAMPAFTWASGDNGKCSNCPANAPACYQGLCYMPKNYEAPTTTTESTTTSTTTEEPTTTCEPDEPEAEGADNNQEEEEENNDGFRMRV

[3] = biological target: LON-1 (Caenorhabditis elegans, UniProt Q09566, V175A); experiment: biochemical
Sequence of LON-1 (Caenorhabditis elegans, UniProt Q09566, V175A) (Q09566 24-312 V175A): as the sequence (Q09566 24-312 C207S) above, with V152A, S184C counted along it

[4] = biological target: LON-1 (Caenorhabditis elegans, UniProt Q09566, C185Y); experiment: biochemical
Sequence of LON-1 (Caenorhabditis elegans, UniProt Q09566, C185Y) (Q09566 24-312 C185Y): as the sequence (Q09566 24-312 C207S) above, with C162Y, S184C counted along it

[5] = biological target: LON-1 (Caenorhabditis elegans, UniProt Q09566, E153A); experiment: biochemical
Sequence of LON-1 (Caenorhabditis elegans, UniProt Q09566, E153A) (Q09566 24-312 E153A): as the sequence (Q09566 24-312 C207S) above, with E130A, S184C counted along it

Compound	Kd [1] [µM]	Kd [2] [µM]	Kd [3] [µM]	Kd [4] [µM]	Kd [5] [µM]
CC(C)CCC[C@@H](C)[C@H]1CC[C@H]2[C@@H]3CC=C4C[C@@H](OS(=O)(=O)O)CC[C@]4(C)[C@H]3CC[C@]12C [cholesterol sulfate]	~19	332 ± 145	76 ± 24	261 ± 92	26 ± 8
CCCCCCCCCCCCCCCC(=O)O [palmitic acid]	~430	–	–	–	–
